27 compounds from ChEMBL document CHEMBL1142381, “Design, synthesis, and biological evaluation of (hydroxyphenyl)naphthalene and -quinoline derivatives: potent and selective nonsteroidal inhibitors of 17beta-hydroxysteroid dehydrogenase type 1 (17beta-HSD1) for the treatment of estrogen-dependent diseases” (J Med Chem, 2008) can be followed below.

The structures appear in SMILES notation.

Series [1] addresses T1, 17-beta-hydroxysteroid dehydrogenase type 1 (Homo sapiens) (UniProt P14061).
T1 sequence (whole entry): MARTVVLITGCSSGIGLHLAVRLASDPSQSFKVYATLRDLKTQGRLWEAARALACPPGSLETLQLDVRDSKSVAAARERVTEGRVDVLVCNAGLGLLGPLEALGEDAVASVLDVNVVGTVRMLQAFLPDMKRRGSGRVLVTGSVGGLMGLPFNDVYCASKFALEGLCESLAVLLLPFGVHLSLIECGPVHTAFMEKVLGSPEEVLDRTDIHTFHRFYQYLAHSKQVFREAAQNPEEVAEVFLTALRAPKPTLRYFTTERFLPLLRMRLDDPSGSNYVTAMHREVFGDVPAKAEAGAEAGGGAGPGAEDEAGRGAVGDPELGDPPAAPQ
As to the kind of experiment: Inhibition of human recombinant 17beta-HSD1 expressed in Sf9 insect cells at 1 uM.

Series [2] deals with T1, 17-beta-hydroxysteroid dehydrogenase type 1 (Homo sapiens). As to the kind of experiment: Inhibition of human recombinant 17beta-HSD1 expressed in Sf9 insect cells at 100 nM.
Series [3] has as its target T2, 17-beta-hydroxysteroid dehydrogenase type 1 (Homo sapiens, UniProt P14061).
T2 sequence (P14061 whole entry): T1 sequence (whole entry)
As to the kind of experiment: Inhibition of human placental 17beta-HSD1.

The target of series [4] is T3, Estrogen receptor (Homo sapiens) (UniProt P03372).
T3 sequence (whole entry): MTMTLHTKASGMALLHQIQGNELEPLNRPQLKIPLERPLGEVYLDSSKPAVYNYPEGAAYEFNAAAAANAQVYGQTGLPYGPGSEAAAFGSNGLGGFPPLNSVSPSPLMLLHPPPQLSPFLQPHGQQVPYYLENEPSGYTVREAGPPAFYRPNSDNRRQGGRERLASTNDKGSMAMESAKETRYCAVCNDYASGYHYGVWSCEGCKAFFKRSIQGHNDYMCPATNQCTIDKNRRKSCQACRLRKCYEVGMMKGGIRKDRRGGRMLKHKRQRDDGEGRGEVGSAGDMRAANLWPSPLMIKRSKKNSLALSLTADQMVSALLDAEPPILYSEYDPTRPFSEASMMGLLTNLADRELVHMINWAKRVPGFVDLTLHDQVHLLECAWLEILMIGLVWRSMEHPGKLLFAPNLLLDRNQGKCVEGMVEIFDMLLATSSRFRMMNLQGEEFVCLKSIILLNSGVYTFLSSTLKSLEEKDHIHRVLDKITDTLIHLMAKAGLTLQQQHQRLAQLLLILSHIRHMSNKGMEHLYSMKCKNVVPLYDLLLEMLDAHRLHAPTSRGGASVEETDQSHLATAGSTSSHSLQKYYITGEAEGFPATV
In words: Displacement of [3H]estradiol from human recombinant ERalpha relative to estradiol.

For series [5], the target named is Estrogen receptor beta (Homo sapiens) (UniProt Q92731). In words: Displacement of [3H]estradiol from human recombinant ERbeta relative to estradiol. For orientation: Displacement assays read how much labelled ligand stays bound in the presence of the test substance.
Sequence of Estrogen receptor beta (Homo sapiens) (Q92731 whole entry): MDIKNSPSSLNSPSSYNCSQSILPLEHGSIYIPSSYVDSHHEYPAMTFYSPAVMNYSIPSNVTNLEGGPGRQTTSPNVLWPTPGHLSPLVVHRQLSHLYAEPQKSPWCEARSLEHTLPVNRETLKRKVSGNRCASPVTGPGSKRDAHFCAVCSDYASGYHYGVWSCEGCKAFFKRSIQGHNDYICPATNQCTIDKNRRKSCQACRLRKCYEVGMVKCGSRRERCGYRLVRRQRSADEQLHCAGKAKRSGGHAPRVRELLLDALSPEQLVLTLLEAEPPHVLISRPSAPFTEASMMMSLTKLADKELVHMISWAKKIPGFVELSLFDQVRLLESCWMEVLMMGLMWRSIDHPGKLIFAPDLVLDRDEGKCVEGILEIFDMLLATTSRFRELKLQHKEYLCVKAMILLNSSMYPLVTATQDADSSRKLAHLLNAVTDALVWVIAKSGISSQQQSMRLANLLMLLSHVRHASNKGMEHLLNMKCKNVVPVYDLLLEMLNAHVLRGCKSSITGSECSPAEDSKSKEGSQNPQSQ
Series [6] can be described thus: Apparent permeability across human Caco-2 cell membrane. It counts as ADME, cell-based.
Series [7] is filed under the species Homo sapiens. In words: Selectivity ratio for human placental 17beta-HSD1 over human placental 17beta-HSD2.
Series [8] has as its target T4, 17-beta-hydroxysteroid dehydrogenase type 2 (Homo sapiens, UniProt P37059).
T4 sequence (P37059 whole entry): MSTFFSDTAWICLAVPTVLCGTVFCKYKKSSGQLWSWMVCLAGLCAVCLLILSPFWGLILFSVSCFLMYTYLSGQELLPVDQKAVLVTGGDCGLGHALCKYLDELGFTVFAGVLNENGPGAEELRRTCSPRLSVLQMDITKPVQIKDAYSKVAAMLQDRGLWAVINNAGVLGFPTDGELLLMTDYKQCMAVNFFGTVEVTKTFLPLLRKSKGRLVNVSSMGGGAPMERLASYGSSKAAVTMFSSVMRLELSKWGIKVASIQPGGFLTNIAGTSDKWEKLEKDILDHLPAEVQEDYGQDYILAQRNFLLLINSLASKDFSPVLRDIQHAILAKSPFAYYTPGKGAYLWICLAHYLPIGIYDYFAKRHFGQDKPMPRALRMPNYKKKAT
As to the kind of experiment: Inhibition of human placental 17beta-HSD2.

As to `Oc1ccc2cc(-c3cccs3)ccc2c1`, the inhibition in series [1] and in series [2] was < 10% each time.
For the compound `C[C@]12CC[C@@H]3c4ccc(O)cc4CC[C@H]3[C@@H]1CC(CCCCCCCCC(=O)OC[C@H]1O[C@@H](n3cnc4c(N)ncnc43)[C@H](O)[C@@H]1O)[C@@H]2O` (stereo partly drawn), the 50% inhibitory concentration (IC50) (commonly the concentration that inhibits the measured activity by half) in series [3] amounted to 52 nM.
Take `Oc1cccc(-c2ccc3cc(O)ccc3c2)c1`: the RBA worked out at 0.2% in series [4] and 0.8% in series [5]. Further, in series [6], the Papp (commonly the rate of passage across a membrane or cell layer, normalised by area and donor concentration) came to 8.9 ×10⁻⁶ cm/s. The 50% inhibitory concentration (IC50) in series [3] is 116 nM.
With `OCc1cccc(-c2ccc3cc(O)ccc3c2)c1`, the inhibition in series [1] and in series [2] was < 10% in each case.
Consider `O=C(O)c1cccc(-c2ccc3cc(O)ccc3c2)c1`, for which the inhibition (commonly how much of the control response was suppressed) in series [1] worked out at 76%; in series [2], 36%.
With `Oc1ccc2cc(-c3cccnc3)ccc2c1`, the figures for the inhibition in series [1] and in series [2] were 32% and < 10%, respectively.
Regarding `O=C(O)c1ccc(-c2ccc3cc(O)ccc3c2)cc1`, the inhibition in series [1] and in series [2] was < 10% in each case.
With `Oc1ccc2cc(-c3ccccc3)ccc2c1`, the inhibition in series [1] and in series [2] was < 10% throughout.
Regarding `Oc1ccc2cc(-c3ccccc3O)ccc2c1`, the inhibition in series [1] and in series [2] was < 10% each time.
Consider `Oc1cccc(-c2cnc3ccccc3c2)c1`, for which the inhibition in series [1] is 18%; in series [2], < 10%.
Turning to `O=[N+]([O-])c1cccc(-c2ccc3cc(O)ccc3c2)c1`, the inhibition in series [1] and in series [2] was < 10% each time.
For `Oc1cccc(-c2ccc3ccccc3c2)c1`, the Ratio IC50 in series [7] turned out to be 1.8. In addition, the RBA in series [4] and in series [5] was 0.01% each time. Moreover, the values for the inhibition in series [1] and in series [2] were 61% and 26%, respectively. The results for the IC50 in series [3] and in series [8] were 2260 nM and 4010 nM, respectively.
Take `Nc1cccc(-c2ccc3cc(O)ccc3c2)c1`: the inhibition in series [1] and in series [2] was < 10% in each case.
In the case of `Oc1ccc(-c2cnc3ccccc3c2)cc1`, the inhibition in series [1] and in series [2] was < 10% in each case.
For the compound `Oc1ccc(-c2ccc3cc(O)ccc3c2)cc1`, the inhibition in series [1] and in series [2] was < 10% throughout.
For the compound `Oc1cccc(-c2cc3cc(O)ccc3[nH]2)c1`, the inhibition in series [1] and in series [2] was < 10% in each case.
Turning to `Oc1cccc(-c2cnc3cc(O)ccc3c2)c1`, the inhibition was found to be 57% in series [1] and 24% in series [2].
As for `Oc1ccc(-c2cnc3cc(O)ccc3c2)cc1`, the inhibition in series [1] and in series [2] was < 10% in each case.
In the case of `Oc1ccc(-c2ccc3c(O)cccc3c2)cc1`, in series [7], the Ratio IC50 turned out to be 0.1. Also, the RBA in series [4] and in series [5] was 5% in each case. The concentration for half-maximal inhibition (IC50) in series [3] was found to be 2420 nM; in series [8] it was 302 nM.
`Oc1cccc(-c2ccc3c(O)cccc3c2)c1`: the inhibition in series [1] was 23%; in series [2], < 10%.
For `CC(=O)Nc1cccc(-c2ccc3cc(O)ccc3c2)c1`, the inhibition was 19% in series [1] and < 10% in series [2].
With `Oc1cncc(-c2ccc3cc(O)ccc3c2)c1`, the Ratio IC50 in series [7] is > 8. Further, the RBA in series [4] was 0.01%; in series [5], 1%. Also, the inhibition in series [1] came to 58%; in series [2], 30%. The IC50 in series [3] was 1230 nM; in series [8], > 10000 nM.
On to `Oc1cccc(-c2ccc3cc(O)ccc3n2)c1`, for which the inhibition in series [1] is 63%; in series [2], 14%.
In the same order, the values of `O=C1CCCc2cc(-c3cccc(O)c3)ccc21` are 23% and < 10%.
On to `Oc1cccc(-c2ccc3ccc(O)cc3c2)c1`, for which the inhibition in series [1] was determined as 62%; in series [2] it was 16%.
With `OCc1ccc(-c2ccc3cc(O)ccc3c2)cc1`, the inhibition in series [1] is 13%; in series [2], < 10%.
With `Oc1ccc2cc(-c3ccsc3)ccc2c1`, the inhibition in series [1] and in series [2] was < 10% each time.
